Like-named read-outs stand apart in the source and are kept apart here. Where a SMILES comes first, the peptide text is derived from it. Where no end group is shown, it is not given here. [ ]: non-standard residue; d: D form. Phe(4-Cl) = N[C@@H](Cc1ccc(Cl)cc1)C(=O)O
Experiments:
human renin = molecular target: T1, human renin (Homo sapiens, UniProt P00797); assay: IC50 on human renin, angiotensin I generation from tetradecapeptide renin substrate (assay of Burton et al); assay type: biochemical
T1 sequence (P00797 67-406): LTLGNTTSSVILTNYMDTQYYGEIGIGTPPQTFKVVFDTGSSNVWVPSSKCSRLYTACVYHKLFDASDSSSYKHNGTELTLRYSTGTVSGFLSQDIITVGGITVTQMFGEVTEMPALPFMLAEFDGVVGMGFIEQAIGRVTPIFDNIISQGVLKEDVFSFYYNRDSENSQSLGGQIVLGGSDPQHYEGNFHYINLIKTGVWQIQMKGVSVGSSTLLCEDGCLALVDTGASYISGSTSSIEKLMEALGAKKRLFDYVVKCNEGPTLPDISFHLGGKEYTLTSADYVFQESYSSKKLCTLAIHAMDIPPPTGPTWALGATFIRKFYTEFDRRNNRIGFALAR
Method: The assay for testing the inhibitory activities of the pentapeptides on renin is described in Burton, J. et al, Biochem. 14: 3892-3898 (1975), which is herein incorporated by reference.
The 11 pentapeptides shown in Table I were synthesized by standard solid phase peptide synthesis as shown in the description following the table and the IC50 (concentration at which inhibition is 50%) value on human renin in the assay of Burton et al, supra, was determined for each sample.
Angiotensin I standards and tetradecapeptide renin substrate (TDP) were obtained from Peninsula Laboratories Inc. (San Mateo, CA). Renin was a gift of Dr. E. Slater (1980). Angiotensin I concentration was determined by radioimmunoassay using a commercially available kit (Clinical Assays, Cambridge, MA).
Standard renin solution (V3) is diluted 4-fold with M Tris-lysozyme buffer (pH 7.40). Concentration of […] of the renin inhibitor being tested are also prepared in the Tris-lysozyme buffer. For the uninhibited reaction Tris-lysozyme buffer alone is used in place of the inhibitor solution.
Reaction mixtures containing TDP solution ([…], 25 µM), renin solution (50 liters, 20-fold diluted), and the inhibitor (50 liters, 50-1000 M) were incubated for 1 hr at 37°, diluted 1000-fold and assayed for angiotensin I.
Inhibition is determined by the following equation:
% Inh.=((ng ANG Iunhib -ng ANG Iinh)/ng ANG
IC50 is determined by plotting Percent inhibition (% Inh.) against the inhibitor concentration and interpolating to determine the molarity of inhibitor at which 50% inhibition is observed.
Cross-reactivity of TDP with ANG I is less than 0.05%.

[1] = system: renin dependent hypertension; assay: Acute renovascular hypertension model, inflatable aortic cuff, monkey; assay type: in vivo, Macaca fascicularis; settings: one monkey, cuff inflated
Method: The animal model of acute renovascular hypertension is prepared by surgically implanting an inflatable cuff about the aorta above the left kidney of an adult Macaca fascicularis as descirbed by Cody, R. J. et al (1980) Hypertension. The right kidney is subsequently removed and catheters implanted in the right iliac vein and artery. Two arterial catheters lead from above and below the constricting cuff to strain gauges permit blood pressure to be measured both above and below the cuff.
Inflation of the cuff creates a measurable amount of ischemia to the remaining kidney and renin dependent hypertension develops in about one hour.
The results of the injection of (RI-78) on the blood pressure and plasma renin level of one monkey are summarized below. The converting enzyme inhibitor teprotide (Ondetti et al, 19) is used as a control.

renin = settings: pH 7.4; Poulsen et al 1973; read-out: inhibitory constant (KI); cited from earlier work
isolated gut section = assay: In vitro transport of radiolabeled pentapeptide across isolated gut section; assay type: in vitro ADME; settings: radiolabeled pentapeptide added to one side of an isolated gut section, label measured on the other side
Source text: Of particular interest is the fact that the peptides of the present invention are short chained, and can potentially be used as orally active peptides.

[2] = IC50 (concentration at which inhibition is 50%), Table I, human renin
[3] = time 145 min, injection of teprotide (control)
[4] = IC50, TDP substrate, pH 7.40, 1 hr at 37°
[5] = Table I, human renin, read-out: IC50 (concentration at which inhibition is 50%)
[6] = printed with the characterisation data of each peptide, TDP substrate, pH 7.40, 1 hr at 37°, read-out: IC50

**Q.** For COc1ccc(C[C@H](NC(=O)[C@@H](N)Cc2ccccc2)C(=O)N[C@H](C(=O)N[C@@H](Cc2ccc(O)cc2)C(=O)N[C@@H](CCCCN)C(N)=O)C(C)C)cc1 [RI-102, Phenylalanyl-O-methyltyrosylvalyltyrosyllysine-amide] (H-FY(Me)VYK-NH2), which IC50 (human renin; [2]) is on record?
**A.** The IC50 was 190 µM.

**Q.** Which results are given for CC[C@H](C)[C@H](NC(=O)[C@H](CCC(N)=O)NC(=O)[C@@H]1CCCN1C(=O)[C@H](CCCNC(=N)N)NC(=O)[C@@H]1CCCN1C(=O)[C@H](Cc1c[nH]c2ccccc12)NC(=O)[C@@H]1CCC(=O)N1)C(=O)N1CCC[C@H]1C(=O)N1CCC[C@H]1C(=O)O [Teprotide, teprotide, reference compound]?
**A.** Blood Pressure [1, 3]: 76 mm Hg; Plasma Renin Activity [1, 3]: ≥ 37

**Q.** Which Ki (renin) does the source give for Leu-Leu-Val-TyrH2 here?
**A.** The Ki was 1020 µM.

**Q.** For “FFVYK-NH2 [RI-77, Phenylalanylphenylalanylvalyltyrosyllysine-amide]”, which IC50 (human renin; [2]) is on record?
**A.** Its IC50 is 80 µM.

**Q.** With “FYVYK-NH2 [RI-81, Phenylalanyltyrosylvalyltyrosyllysine-amide]” as the compound, how does the IC50 (human renin; [2]) read?
**A.** The IC50 was 80 µM.

**Q.** What about the IC50 (human renin; [4]) of the same compound?
**A.** The IC50 was 150 µM.

**Q.** With CC(C)[C@H](NC(=O)[C@H](Cc1ccc(Cl)cc1)NC(=O)[C@@H](N)Cc1ccccc1)C(=O)N[C@@H](Cc1ccc(O)cc1)C(=O)N[C@@H](CCCCN)C(N)=O [RI-80, Phenylalanyl-4-chlorophenylalanylvalyltyrosyllysineamide] (H-F[Phe(4-Cl)]VYK-NH2) as the compound, how does the “transport across the gut” value (isolated gut section) read?
**A.** The value was “transported across the gut”.

**Q.** What about the IC50 (human renin; [5]) of the same compound?
**A.** The IC50 was 40 µM.

**Q.** Which IC50 (human renin; [2]) does the source give for CC(C)[C@H](NC(=O)[C@H](Cc1ccccc1)NC(=O)[C@@H](N)Cc1ccc(Cl)cc1)C(=O)N[C@@H](Cc1ccc(O)cc1)C(=O)N[C@@H](CCCCN)C(N)=O [RI-78, 4-chlorophenylalanylphenylalanylvalyltyrosyllysine-amide] (H-[Phe(4-Cl)]FVYK-NH2) here?
**A.** Its IC50 is 70 µM.

**Q.** What about the IC50 (human renin; [4]) of the same compound?
**A.** Its IC50 is 70 µM.

**Q.** What about the “Blood Pressure” value ([1]; time 0 min, injection 0.5 mg RI-78) of the same compound?
**A.** Its value is 113 mm Hg.

**Q.** What about the “Blood Pressure” value ([1]; time 10 min, injection 2.5 mg RI-78) of the same compound?
**A.** The value was 65 mm Hg.

**Q.** And the “Blood Pressure” value ([1]; time 25 min (15 min after 2.5 mg RI-78), no further injection)?
**A.** The value was 111 mm Hg.

**Q.** And the “Plasma Renin Activity” value ([1]; time 30 min (20 min after 2.5 mg RI-78), no further injection)?
**A.** The value was 28.5.

**Q.** Which IC50 (human renin; [2]) does the source give for “FFVFK-NH2 [RI-84, Phenylalanylphenylalanylvalylphenylalanyllysine-amide]” here?
**A.** The IC50 was 750 µM.

**Q.** Which results are given for CC(C)[C@H](NC(=O)[C@H](Cc1ccccc1)NC(=O)[C@@H](N)Cc1ccccc1)C(=O)N[C@@H](Cc1ccc(Cl)cc1)C(=O)N[C@@H](CCCCN)C(N)=O [RI-85, Phenylalanylphenylalanylvalyl-4-chlorophenylalanyllysine-amide] (H-FFV[Phe(4-Cl)]K-NH2)?
**A.** IC50 (human renin; [2]): ~100 µM; IC50 (human renin; [4]): 175 µM

**Q.** With “Phenylalanylphenylalanyl-threo-3-chloro-L-2-amino-butyryltyrosyllysine amide [RI-82]” as the compound, how does the IC50 (human renin; [5]) read?
**A.** The IC50 was 1250 µM.

**Q.** And the IC50 (human renin; [6])?
**A.** The IC50 was 2450 µM.

**Q.** Which results are given for “YFVYK-NH2 [RI-79, Tyrosylphenylalanylvalyltyrosyllysine-amide]”?
**A.** IC50 (human renin; [5]): 140 µM; IC50 (human renin; [6]): 50 µM

**Q.** With “FFTYK-NH2 [RI-83, Phenylalanylphenylalanylthreonyltyrosyllysine-amide]” as the compound, how does the IC50 (human renin; [2]) read?
**A.** The IC50 was 3750 µM.
